Drawing on patent US20050054629A1, “Compounds and methods of treating cell proliferative diseases” (priority 2002, published 2005), this text covers IC50 and melting point for 26 molecules.

Molecules are shown by their SMILES.

Series [1] relates to H460 lung carcinoma. In words: Cytotoxicity assay (MTT), 6 days. In kind it is cell-based. To be noted: Homo sapiens, NCI-H460, 144 h, 6 days of treatment, read-out: Toxicity 6d (IC 50, μM) H460. The text has this: (§1) Four human tumoral cell lines, namely HCT116 colon adenocarcinoma, H460 lung carcinoma, MCF-7 and MDA-MB-231 breast carcinoma cell lines, and three immortalized but non tumorigenic cell lines, namely NIH3T3 mouse fibroblasts and human breast-derived MCF10-A and MRC-5 were purchased at ATCC and cultured according to their recommendations. In order to determine the cytotoxicity associated with one compound, a microculture tetrazolium assay (MTT), as described by Carmichael et al (Cancer Res, 1996) with modifications, was used. Briefly, 5.10^3 or 2.10^4 cells were seeded per well in 24-well plates 24 hours before drug addition. Cells were treated with 0, 1, 10, 17.5, 25 and 50 μM of compound solubilized in DMSO, adjusting the total volume of DMSO (Dimethylsulfoxide) to 1%. Forty-eight hours or 6 days after treatment, the medium was replaced by PBS containing 0.5 mg/ml MTT (Sigma) and cells were incubated for 3 more hours at 37° C. before solubilization of formazan crystals in 100% DMSO. Absorbance was measured using a spectrophotometer at a wavelength of 550 nm. Cell surviving fraction and 50% inhibitory concentration were calculated. All assays were performed in triplicate.

Series [2] relates to MDA-MB-231 breast carcinoma. The series can be described thus: Cytotoxicity assay (MTT), 6 days. In kind it is cell-based. To be noted: Homo sapiens, MDA-MB-231, 144 h, 6 days of treatment, read-out: Toxicity 6d (IC 50, μM) MDA231.
From the text: as §1

Series [3] relates to MCF-7 breast carcinoma. The series can be described thus: Cytotoxicity assay (MTT), 6 days. In kind it is cell-based. To be noted: Homo sapiens, MCF7, 144 h, 6 days of treatment, read-out: Toxicity 6d (IC 50, μM) MCF7.
From the text: as §1

Series [4] has as its system HCT116 colon adenocarcinoma. The series can be described thus: Cytotoxicity assay (MTT), 6 days. In kind it is cell-based, human. Conditions: Homo sapiens, HCT-116, 144 h, 6 days of treatment, read-out: Toxicity 6d (IC 50, μM) HCT116.
From the text: as §1

Series [5] deals with NIH3T3 mouse fibroblasts. The series can be described thus: Cytotoxicity assay (MTT), 6 days. In kind it is cell-based. To be noted: NIH3T3, 144 h, 6 days of treatment, read-out: Toxicity 6d (IC 50, μM) NIH3T3.
From the text: as §1

For the molecule `O=C(O)c1cc(=O)c(OCCCCCOc2ccc(Cl)c(Cl)c2)co1` [EH6600, 5-[5-(3,4-Dichlorophenyloxy)pentyloxy]-4-oxo-4H-pyran-2-carboxylic acid], the IC50 was over 50 µM in series [1], over 25 µM in series [2], 30 µM in series [3] and over 50 µM in series [4].

`C/C=C/c1oc(C(=O)O)cc(=O)c1OCCCCCOc1ccc(Cl)c(Cl)c1` [EH10501]: the IC50 in series [1], in series [5], in series [2], in series [3] and in series [4] was over 50 µM in each case.

On to `C/C=C/c1oc(C(=O)O)cc(=O)c1OCCCCCOc1ccccc1CCC` [EH15301, (E)-2-(Propen-1-yl)-3-[5-(2-propylphenyloxy)pentyloxy]-4-oxo-4H-pyran-6-carboxylic acid], for which the IC50 in series [1], in series [5], in series [2], in series [3] and in series [4] was over 50 µM in each case.

Turning to `O=C(O)c1cc(=O)c(OCCCCCOc2cccc(Cl)c2)co1` [EH15700, 5-[5-(3-Chlorophenyloxy)pentyloxy]-4-oxo-4H-pyran-2-carboxylic acid], the IC50 in series [1] is over 50 µM; in series [2] it was 20 µM; in series [3] it was over 50 µM; in series [4], over 50 µM.

For the molecule `C/C=C/c1oc(C(=O)O)cc(=O)c1OCCCCCOc1ccc(Cl)cc1` [EH17401, (E)-3-[5-(4-Chlorophenyloxy)pentyloxy]-2-(propen-1-yl)-4-oxo-4H-pyran-6-carboxylic acid], the IC50 in series [1], in series [5], in series [2], in series [3] and in series [4] was over 50 µM each time.

As to `O=C(O)c1cc(=O)c(OCCCCCOc2ccc(Cl)cc2)co1` [EH17600, 5-[5-(4-Chlorophenyloxy)pentyloxy]-4-oxo-4H-pyran-2-carboxylic acid], the IC50 in series [1] is over 50 µM; in series [2] it was over 25 µM; in series [3], 17.5 µM; in series [4] it was over 50 µM.

Consider `C/C=C/c1oc(C(=O)O)cc(=O)c1OCCCCCOc1cccc(Cl)c1` [EH18401, (E)-3-[5-(3-Chlorophenyloxy)pentyloxy]-2-(propen-1-yl)-4-oxo-4H-pyran-6-carboxylic acid], for which the IC50 in series [1], in series [5], in series [2], in series [3] and in series [4] was over 50 µM each time.

Consider `O=C(O)c1cc(=O)c(OCCCCOc2ccc(Cl)c(Cl)c2)co1` [EH20700, 5-[4-(3,4-Dichlorophenyloxy)butyloxy] oxo-4H-pyran-2-carboxylic acid], for which the IC50 in series [1], in series [2], in series [3] and in series [4] was over 50 µM throughout.

As for `C/C=C/c1oc(C(=O)O)cc(=O)c1OCCCCCOc1ccc(Cl)c(Cl)c1CCC` [EH22501, (E)-3-[5-(3,4-Dichloro-2-propylphenyloxy)pentyloxy]-2-(propen-1-yl)-4-oxo-4H-pyran-6-carboxylic acid], the IC50 was over 50 µM in series [1]; over 50 µM in series [5]; 50 µM in series [2]; over 50 µM in series [3]; over 50 µM in series [4].

Consider `CCCc1ccccc1OCCCCCOc1coc(C(=O)O)cc1=O` [EH26900, 5-[5-(2-Propylphenyloxy)pentyloxy]-4-oxo-4H-pyran-2-carboxylic acid], for which the IC50 in series [1], in series [2], in series [3] and in series [4] was over 50 µM throughout.

As to `CCCc1c(OCCCCCOc2coc(C(=O)O)cc2=O)ccc(Cl)c1Cl` [EH27900], the IC50 in series [1] is over 50 µM; in series [2], over 25 µM; in series [3] it was 40 µM; in series [4] it was over 50 µM.

For orientation: melting point means the temperature, or range, at which the solid turns liquid. Consider `O=C(OCc1cc(=O)c(OCCCCCn2ccc3ccccc32)co1)c1ccc(Cl)cc1` [EHT 0078, 4-Chloro-benzoic acid 5-(5-indol-1-yl-pentyloxy)-4-oxo-4H-pyran-2-ylmethyl ester], for which the melting point was in the range of 215 to 220 °C.

Molecule `CCNC(=O)OCc1cc(=O)c(OCCCCCn2ccc3ccccc32)co1` [EHT 1120, Ethyl-carbamic acid 5-(5-indol-1-yl-pentyloxy)-4-oxo-4H-pyran-2-ylmethyl ester] yielded a melting point of 81 to 83 °C.

As for `O=C(Nc1ccc(Cl)cc1)OCc1cc(=O)c(OCCCCCn2ccc3ccccc32)co1` [EHT 2232, (4-Chloro-phenyl)-carbamic acid 5-(5-indol-1-yl-pentyloxy)-4-oxo-4H-pyran-2-ylmethyl ester], the melting point fell in the range of 170 to 171 °C.

Turning to `O=C(OCc1cc(=O)c(OCCCCCn2ccc3ccccc32)co1)C1CCCCC1` [EHT 2253, Cyclohexanecarboxylic acid 5-(5-indol-1-yl-pentyloxy)-4-oxo-4H-pyran-2-ylmethyl ester], the melting point lay within 62 to 66 °C.

`CCCc1c(Cl)cc(Cl)cc1OCCCCCOc1coc(CO)cc1=O` [EHT 2991] yielded a melting point of 77 to 79 °C.

As to `C/C=C/c1oc(CO)cc(=O)c1OCCCCCOc1ccc(C#N)c(F)c1` [EHT 4112, (E)-2-Fluoro-4-[5-(6-hydroxymethyl-4-oxo-2-propenyl-4H-pyran-3-yloxy)-pentyloxy]-benzonitrile], the melting point fell in the range of 123 to 125 °C.

In the case of `O=C(OCc1cc(=O)c(OCCCCCn2ccc3ccccc32)co1)c1ccoc1` [EHT 4167, Furan-3-carboxylic acid 5-(5-indol-1-yl-pentyloxy)-4-oxo-4H-pyran-2-ylmethyl ester], the melting point was 103 to 105 °C (dec.).

As to `O=C(Nc1ccccc1)OCc1cc(=O)c(OCCCCCn2ccc3ccccc32)co1` [EHT 4902, Phenyl-carbamic acid 5-(5-indol-1-yl-pentyloxy)-4-oxo-4H-pyran-2-ylmethyl ester], the melting point was 150 °C (dec.).

Molecule `C/C=C/c1oc(CO)cc(=O)c1OCCCCCOc1cc(C(F)(F)F)cc(C(F)(F)F)c1` [EHT 5403, (E)-3-[5-(3,5-Bis-trifluoromethyl-phenoxy)-pentyloxy]-6-hydroxymethyl-2-propenyl-4H-pyran-4-one] had a melting point of 90 to 92 °C.

Take `C=CCc1cc(Cl)ccc1OCCCCCOc1coc(CO)cc1=O` [EHT 5431, 5-[5-(2-Allyl-4-chloro-phenoxy)-pentyloxy]-2-hydroxymethyl-4H-pyran-4-one]: the melting point lay in the range of 98 to 100 °C.

As to `CCCc1cc(Cl)ccc1OCCCCCOc1coc(CO)cc1=O` [EHT 6152, 5-[5-(4-Chloro-2-propyl-phenoxy)pentyloxy]-2-hydroxymethyl-4H-pyran-4-one], the melting point lay within 92 to 94 °C.

Regarding `O=C(OCc1cc(=O)c(OCCCCCn2ccc3ccccc32)co1)c1ccccc1` [EHT 6517, Benzoic acid 5-(5-indol-1-yl-pentyloxy)-4-oxo-4H-pyran-2-ylmethyl ester], the melting point lay within 71 to 73 °C.

`C=CCc1c(Cl)cc(Cl)cc1OCCCCCOc1coc(CO)cc1=O` [EHT 6978, 5-[5-(2-Allyl-3,5-dichloro-phenoxy)-pentyloxy]-2-hydroxymethyl-4H-pyran-4-one]: the melting point lay in the range of 59 to 61 °C.

As to `C/C=C/c1oc(CO)cc(=O)c1OCCCCCOc1ccc(F)c(F)c1` [EHT 8307], the melting point was in the range of 86 to 87 °C.

In turn, `C/C=C/c1oc(CO)cc(=O)c1OCCCCCOc1cc(Cl)cc(Cl)c1CCC` [EHT 9916, (E)-3-[5-(3,5-Dichloro-2-propyl-phenoxy)-pentyloxy]-6-hydroxymethyl-2-propenyl-4H-pyran-4-one] returned a melting point of 91 to 93 °C.
